# From US20230123334A1, “AMINO LIPID COMPOUND, PREPARATION METHOD THEREFOR, AND APPLICATION THEREOF” (SHENZHEN SHENXIN BIOTECHNOLOGY CO., LTD., priority 2020, published 2023)
# Tested on: HEK293 cells
# Experiment: Preliminary screening as DNA vectors, GFP transfection of HEK293 cells
# Assay type: cell-based
# Conditions: HEK293 cells; lipid/DOPE liposome with 75 ng plasmid DNA (psin-EGFP-IRES-Puro); number of cells expressing GFP divided by total number of nuclei (Hoechst)
# Method: Cell line: HEK293 cells (ATCC CRL-1573™)
# Medium: DMEM supplemented with 10% fetal bovine serum (Invitrogen)
# Mode of screening: cell transfection on 96-well plates
# Detection (readout): percentage of the number of GFP fluorescent cells relative to the total number of cells (the total number of cells was measured using nucleus dye Hoechst—see FIG. 2). Lipofectamine2000 (Invitrogen) was used as positive control, according to the manufacturer's instructions.
# Method: an 8-channel pipette was used for sample addition. The contents shown were for a single well of a 96-well flat plate.
# 1. The compound (0.01 mmol) prepared in Example 1 was dissolved in 1 mL of anhydrous ethanol. After ultrasonically dissolved, 10 μL of the resultant amino lipid solution in ethanol was taken and mixed with 5 μL of DOPE solution in ethanol (0.01 m), and then to the obtained mixture was added 35 μL of 0.2M sodium acetate buffer (pH 5.6), and 50 μL of liposome solution was prepared by vortex at a constant rotating speed for 30 s. 4 μL was taken from the 50 μL liposome solution and added to 46 μL of 0.02M sodium acetate buffer (pH 5.6), and the final liposome solution was formed by vortex at a constant rotating speed for 30 s. 5 μL was taken from the final liposome solution and mixed with 75 ng plasmid DNA (psin-EGFP-IRES-Puro, Clontech) dissolved in 5 μL of 0.02 M sodium acetate buffer, and was allowed to stay at room temperature for 30 min to form a lipid/DNA transfection complex.
# 2. 10 μL of the lipid/DNA transfection complex was incubated at room temperature for 30 min, followed by addition of 90 μL of fresh resuspended cells (3-5×10^4 cells) and mixing with a pipette. 100 μL of cells+lipid/DNA complex was transferred to separate wells of a 96-well culture plate immediately, and placed in an incubator containing 5% CO2 at 37° C.
# 3. Hoechst33258 (Invitrogen) was added at a final concentration of 0.2 μg/mL to the cells 20 to 24 hours after initial cell transfection, and cultured in darkness at 37° C. for 15 min. Afterwards, the cells were washed once with a PBS solution, and then added with medium for culture for 20 to 24 h.
# 4. The cells were placed in a high-throughput confocal microscope (Molecular Devices ImageXpress), and four visual fields of the image of the cells were captured for each well, and images at three laser wavelengths were captured for each sample: bright field images of cells (FIG. 2(a) and FIG. 2(b)), Hoechst-staining images showing total nuclei (FIG. 2(c) and FIG. 2(d)) and GFP images showing success in transfection with the plasmid DNA and the expression of GFP (FIG. 2(e) and FIG. 2(f)). MetaXpress software was used to separately count the cells in the Hoechst-staining images and GFP images, and then the number of cells expressing GFP was divided by the total number of nuclei to give the absolute cell transfection efficiency. The absolute transfection efficiency was calculated as follows: […]
row,Structure (SMILES),Absolute DNA transfection efficiency in HEK293 cells [%]
1,CCCCCCCCCCCCN(CCCCCCCCCCCC)c1nc(NCCCCCCCCCCC)nc(NCCN(C)C)n1 [Compound N112N12D1],0.7
2,CCCCCCCCCCCCN(CCCCCCCCCCCC)c1nc(NCCCCCCCCCCC)nc(NCCN2CCOCC2)n1 [Compound N112N12D2],0.0
3,CCCCCCCCCCCCN(CCCCCCCCCCCC)c1nc(NCCCCCCCCCCC)nc(NCCN(CC)CC)n1 [Compound N112N12D7],0.4
4,CCCCCCCCCCCCN(CCCCCCCCCCCC)c1nc(NCCCCCCCCCCC)nc(NCCCN2CCOCC2)n1 [Compound N112N12D8],0.0
5,CCCCCCCCCCCCN(CCCCCCCCCCCC)c1nc(NCCCCCCCCCCC)nc(NCCCN2CCN(C)CC2)n1 [Compound N112N12D9],0.1
6,CCCCCCCCCCCCN(CCCCCCCCCCCC)c1nc(NCCCCCCCCCCC)nc(NCC2CCN(C)CC2)n1 [Compound N112N12D10],0.7

# Same assay, conditions: amino lipid/DOPE liposome with 75 ng plasmid DNA (psin-EGFP-IRES-Puro); number of GFP-expressing cells divided by total nuclei (Hoechst)
row,Structure (SMILES),Absolute DNA transfection efficiency in HEK293 cells [%]
1,CCCCCCNc1nc(NCCN(C)C)nc(SCCCCCC)n1 [S6N6 D1],0.1
2,CCCCCCNc1nc(NCCN2CCOCC2)nc(SCCCCCC)n1 [S6N6 D2],0.0
3,CCCCCCNc1nc(NCCN2CCCC2)nc(SCCCCCC)n1 [S6N6 D3],0.0
4,CCCCCCNc1nc(NCCN2CCCCC2)nc(SCCCCCC)n1 [S6N6 D4],0.0
5,CCCCCCNc1nc(NCCN2CCN(C)CC2)nc(SCCCCCC)n1 [S6N6 D5],0.0
6,CCCCCCNc1nc(NCCCN(C)C)nc(SCCCCCC)n1 [S6N6 D6],0.0
7,CCCCCCNc1nc(NCCN(CC)CC)nc(SCCCCCC)n1 [S6N6 D7],0.0
8,CCCCCCNc1nc(NCCCN2CCOCC2)nc(SCCCCCC)n1 [S6N6 D8],0.0
9,CCCCCCNc1nc(NCCCN2CCN(C)CC2)nc(SCCCCCC)n1 [S6N6 D9],0.0
10,CCCCCCNc1nc(NCC2CCN(C)CC2)nc(SCCCCCC)n1 [S6N6 D10],0.0
11,CCCCCCCNc1nc(NCCN(C)C)nc(SCCCCCC)n1 [S6N7 D1],0.1
12,CCCCCCCNc1nc(NCCN2CCOCC2)nc(SCCCCCC)n1 [S6N7 D2],0.0
13,CCCCCCCNc1nc(NCCN2CCCC2)nc(SCCCCCC)n1 [S6N7 D3],0.0
14,CCCCCCCNc1nc(NCCN2CCCCC2)nc(SCCCCCC)n1 [S6N7 D4],1.1
15,CCCCCCCNc1nc(NCCN2CCN(C)CC2)nc(SCCCCCC)n1 [S6N7 D5],3.7
16,CCCCCCCNc1nc(NCCCN(C)C)nc(SCCCCCC)n1 [S6N7 D6],0.4
17,CCCCCCCNc1nc(NCCCN2CCOCC2)nc(SCCCCCC)n1 [S6N7 D8],0.0
18,CCCCCCCNc1nc(NCCCN2CCN(C)CC2)nc(SCCCCCC)n1 [S6N7 D9],0.2
19,CCCCCCCNc1nc(NCC2CCN(C)CC2)nc(SCCCCCC)n1 [S6N7 D10],2.9
20,CCCCCCCCNc1nc(NCCN(C)C)nc(SCCCCCC)n1 [S6N8 D1],0.2
21,CCCCCCCCNc1nc(NCCN2CCOCC2)nc(SCCCCCC)n1 [S6N8 D2],0.3
22,CCCCCCCCNc1nc(NCCN2CCCC2)nc(SCCCCCC)n1 [S6N8 D3],2.0
23,CCCCCCCCNc1nc(NCCN2CCCCC2)nc(SCCCCCC)n1 [S6N8 D4],1.7
24,CCCCCCCCNc1nc(NCCN2CCN(C)CC2)nc(SCCCCCC)n1 [S6N8 D5],3.4
25,CCCCCCCCNc1nc(NCCCN(C)C)nc(SCCCCCC)n1 [S6N8 D6],0.6
26,CCCCCCCCNc1nc(NCCN(CC)CC)nc(SCCCCCC)n1 [S6N8 D7],0.9

row,Structure (SMILES),Absolute DNA transfection efficiency in HEK293 cells [%]
1,CCCCCCCCNc1nc(NCCCN2CCOCC2)nc(SCCCCCC)n1 [S6N8 D8],0.0
2,CCCCCCCCNc1nc(NCCCN2CCN(C)CC2)nc(SCCCCCC)n1 [S6N8 D9],1.2
3,CCCCCCCCNc1nc(NCC2CCN(C)CC2)nc(SCCCCCC)n1 [S6N8 D10],0.4
4,CCCCCCCCCNc1nc(NCCN(C)C)nc(SCCCCCC)n1 [S6N9 D1],0.1
5,CCCCCCCCCNc1nc(NCCN2CCOCC2)nc(SCCCCCC)n1 [S6N9 D2],0.2
6,CCCCCCCCCNc1nc(NCCN2CCCC2)nc(SCCCCCC)n1 [S6N9 D3],0.4
7,CCCCCCCCCNc1nc(NCCN2CCCCC2)nc(SCCCCCC)n1 [S6N9 D4],0.4
8,CCCCCCCCCNc1nc(NCCN2CCN(C)CC2)nc(SCCCCCC)n1 [S6N9 D5],7.9
9,CCCCCCCCCNc1nc(NCCCN(C)C)nc(SCCCCCC)n1 [S6N9 D6],1.5
10,CCCCCCCCCNc1nc(NCCN(CC)CC)nc(SCCCCCC)n1 [S6N9 D7],1.1
11,CCCCCCCCCNc1nc(NCCCN2CCOCC2)nc(SCCCCCC)n1 [S6N9 D8],0.0
12,CCCCCCCCCNc1nc(NCCCN2CCN(C)CC2)nc(SCCCCCC)n1 [S6N9 D9],0.8
13,CCCCCCCCCNc1nc(NCC2CCN(C)CC2)nc(SCCCCCC)n1 [S6N9 D10],4.3
14,CCCCCCCCCCCNc1nc(NCCN(C)C)nc(SCCCCCC)n1 [S6N11 D1],1.5
15,CCCCCCCCCCCNc1nc(NCCN2CCOCC2)nc(SCCCCCC)n1 [S6N11 D2],0.2
16,CCCCCCCCCCCNc1nc(NCCN2CCCC2)nc(SCCCCCC)n1 [S6N11 D3],2.8
17,CCCCCCCCCCCNc1nc(NCCN2CCCCC2)nc(SCCCCCC)n1 [S6N11 D4],3.3
18,CCCCCCCCCCCNc1nc(NCCN2CCN(C)CC2)nc(SCCCCCC)n1 [S6N11 D5],17.5
19,CCCCCCCCCCCNc1nc(NCCCN(C)C)nc(SCCCCCC)n1 [S6N11 D6],1.9
20,CCCCCCCCCCCNc1nc(NCCN(CC)CC)nc(SCCCCCC)n1 [S6N11 D7],2.2
21,CCCCCCCCCCCNc1nc(NCCCN2CCOCC2)nc(SCCCCCC)n1 [S6N11 D8],1.5
22,CCCCCCCCCCCNc1nc(NCCCN2CCN(C)CC2)nc(SCCCCCC)n1 [S6N11 D9],21.1
23,CCCCCCCCCCCNc1nc(NCC2CCN(C)CC2)nc(SCCCCCC)n1 [S6N11 D10],7.9
24,CCCCCCCCCCCCNc1nc(NCCN(C)C)nc(SCCCCCC)n1 [S6N12 D1],4.7
25,CCCCCCCCCCCCNc1nc(NCCN2CCOCC2)nc(SCCCCCC)n1 [S6N12 D2],0.9
26,CCCCCCCCCCCCNc1nc(NCCN2CCCC2)nc(SCCCCCC)n1 [S6N12 D3],6.2
